From US9855248B2, “Polymorph of itraconazole with improved pharmaceutical properties” (The Chinese University of Hong Kong, priority 2016, dated 2018)
“Also recorded” adds a separate entry of the source.

Experiments:
[1] = pH 7.4; cited from earlier work
[2] = Powder dissolution study in 50% v/v aqueous ethanol; assay type: physicochemical; details: 25° C.; for solid form of undissolved solid at end of dissolution study (DSC and XRPD): 3-day dissolution study; for initial dissolution rate (in words): initial time period
Experimental: As an alternative means to compare the solubilities of the three ITZ polymorphs, the dissolution-time profiles of these crystal forms were determined in the same solvent system. According to the Noyes Whitney equation, the dissolution rate per unit surface area of a drug solid in contact with the dissolution medium is directly proportional to its solubility under sink conditions at a constant temperature. Thus the amount of drug dissolved initially over a defined time period can provide an indirect measure of the drug solubility. […] The concentrations of Form I and Form II in dissolution media increased gradually with time and plateaued off after ˜10 h. The maximum drug concentration attained was 2-3 fold higher for Form II than for Form I, consistent with the equilibrium solubility data.
All powder samples for dissolution testing were first sieved through an 80 mesh-screen (180 μm), and only particles with sizes smaller than 180 m were used. An accurately weighed amount (20±0.2 mg) of each ITZ polymorph or ITZ amorphous powder (made by rapid melt quenching) was dispersed in 25 ml 50% v/v aqueous ethanol with continuous stirring at 100 rpm in a round bottom flask, equilibrated inside a temperature-controlled incubator (Lovibond TC 135S, Tintometer GmbH, Dortmund, Germany) at 25° C. At appropriate time intervals, a 400 μl aliquot of each solution was withdrawn, filtered through 0.22 m membrane filters, and diluted with a suitable amount of 50% v/v aqueous ethanol prior to UPLC analysis. Each sample withdrawn was replaced by the same volume of fresh dissolution medium. The method of drug content detection was the same as described in the preceding section. At the end of the dissolution study, the undissolved solid left in the medium was checked by DSC or XRPD for possible polymorphic transition.

[3] = Solid-state physical stability of Form III (annealing, ambient handling, grinding; XRPD); assay type: physicochemical
Experimental: X-ray powder diffraction (XRPD) data were collected using a powder X-ray diffractometer (Philips, Xpert PRO, The Netherlands) equipped with a Cu radiation source operating at 40 kV and […]. Sample was uniformly packed into a custom-made aluminum holder with a 2 mm depth and scanned from 20 of 3° to 400 at a rate of 4°/min with a step size of 0.017°.
FIGS. 2A, 2B and 2C show the XRPD patterns for the three different growth zones, respectively. […] The third zone, termed Form III, was characterized by signature peaks at approximately 11.9°, 16.7°, 17.4°, 18.7°, 19.1°, 20.0°, and 21.1°, indicative of a new crystal form, which has not been reported previously. […] The morphologies of Form I and II were similar and almost indistinguishable. Form III only existed in the bulk of recrystallized ITZ (FIG. 1C). All of the three forms grew as spherulites at temperatures below 110° C. (FIG. 1D). At temperatures above 110° C., Forms I and II grew as separate faceted crystals (FIGS. 1E and 1F), whereas Form III transformed to Form II. The latter was further substantiated by annealing Form III at 100° C. and 120° C.
Samples of ITZ polymorphs recrystallized from melt on glass coverslips were first examined by HSM. […] (FIGS. 3B and 3C). Further heating led to melting of Form II at 158° C. (FIG. 3D), and eventually melting of Form I at around 167° C. (FIG. 3E). To gain further insight into the thermal behaviors and melting properties of the different polymorphs, DSC analyses were conducted and the respective thermograms are presented in FIG. 4A. Form I melted at 165.1° C., which is in excellent agreement with the melting point of the commercial ITZ form (Form I). The melting point of Form II (155.7° C.) is the same as that described previously. The measured molar enthalpy of fusion, ΔH^f, of Form II was 60.6±1.7 kJ/mol, which is less than that (ΔH^f=68.6±1.5 kJ/mol) of Form I. The molar entropy of fusion, ΔS^f, of Form II (141±4 J/mol·K) was also less than that of Form I (ΔS^f=156±4 J/mol·K). […] At low scanning rate, e.g., 10° C./min, a small exothermic peak appeared at ˜120° C. (which possibly reflects the transition of Form III to Form II), followed by an endotherm at ˜156° C., corresponding to the melting of Form II. At higher heating rates, e.g., 40° C./min, the melting endotherm of Form III started to emerge at 119.4° C., followed by a relatively small endotherm at a higher temperature, which can be attributed to the melting of recrystallized Form II from the Form III melt. Due to the co-existence of Form III and/or its melt, this Form II was seen to melt at a lower temperature than its phase pure counterpart (m.p. ˜156° C.). […]

[4] = assay type: physicochemical
Experimental: Solubilities of different polymorphs were determined by adding excess drug to 10 ml of 50% v/v aqueous ethanol in glass vials, followed by equilibration with occasional shaking at different temperatures (4° C., 10° C., 20° C., 25° C., 34° C., 40° C.) in a temperature-controlled incubator (Lovibond TC 135S, Tintometer GmbH, Dortmund, Germany) for 3 days (i.e., until equilibrium was reached). The solution was then filtered and the drug content was analyzed by UPLC (Agilent 1200 Infinity LC systems) using a UHPLC ZORBAX Eclipse Plus C18 column (2.1 mm×50 mm; 1.8 m). The mobile phase consisted of acetonitrile and 0.1% formic acid (60:40 v/v) eluted at 1 ml/min. Quantification was based on the peak area measurement by UV absorption at λ=260 nm. After the study, the residual solid in each glass vial was analyzed by DSC and XRPD to check for possible polymorphic transitions during the study. Solubility data were expressed in mole fraction as follows:
[formula] where n1 is the number of moles of solvent, and n2 is the number of moles of solute.
In addition to the enthalpy of fusion, equilibrium solubility and the related enthalpy of solution in a given solvent system can offer useful information on the bonding strength within the crystal lattice of a particular polymorph. […] According to the van't Hoff equation, the plot should be linear if the enthalpy of solution term in the equation is truly temperature-independent. […] The extrapolation of two linear plots yielded a transition temperature, Tr, of […] at the intersection point for the two polymorphs. The enthalpy, ΔHII→I, and entropy, ΔSII→I, of polymorphic transition from Form II to Form I were estimated to be −4470.8 J/mol and −5.7 J/mol·K from the slope of the log solubility ratio plot in FIG. 6B and from the relation, ΔSII→I=ΔHII→I/Tr (i.e., when ΔGII→I=0), respectively. The free energies of polymorphic transition, ΔGII→I, from Form II to Form I at 25° C. and 37° C., as defined by the equation, ΔGII→I=ΔHII→I−TΔSII→I, were calculated to be −2771 J/mol and −2703 J/mol, respectively. The solubility of Form II was about 2-3 fold higher than that of Form I in the temperature range studied.

| maximum/peak drug concentration relative to that of Form I [2] | time at which concentration in dissolution medium plateaued off [2] | molar enthalpy of solution [4] | Structure (SMILES) | solid form of undissolved solid at end of dissolution study (DSC and XRPD) [2] | initial dissolution rate (in words) [2] | other results |
| --- | --- | --- | --- | --- | --- | --- |
| 2-3 fold | ~10 h | 51.3 (±2.9) kJ/mol | CCC(C)n1ncn(-c2ccc(N3CCN(c4ccc(OC[C@H]5CO[C@](Cn6cncn6)(c6ccc(Cl)cc6Cl)O5)cc4)CC3)cc2)c1=O (mixture of isomers) [Form II, itraconazole] | maintained their original crystal structures; also recorded: remained unchanged |  | enthalpy, ΔHII→I, of polymorphic transition from Form II to Form I [4]: -1.0685 kcal/mol; entropy, ΔSII→I, of polymorphic transition from Form II to Form I [4]: −5.7 J/mol·K; transition temperature, Tr, of Form I and Form II [4]: 497.8 °C; solubility relative to that of Form I ([4]; 3 days): 2-3 fold |
|  | ~10 h | 55.8 (±2.8) kJ/mol | CCC(C)n1ncn(-c2ccc(N3CCN(c4ccc(OC[C@H]5CO[C@](Cn6cncn6)(c6ccc(Cl)cc6Cl)O5)cc4)CC3)cc2)c1=O (mixture of isomers) [Form I, itraconazole] | maintained their original crystal structures; also recorded: remained unchanged |  |  |

The next lines start with the compound.

| Structure (SMILES) | maximum/peak drug concentration relative to that of Form I [2] | time at which concentration in dissolution medium plateaued off [2] | molar enthalpy of solution [4] | solid form of undissolved solid at end of dissolution study (DSC and XRPD) [2] | initial dissolution rate (in words) [2] | other results |
| --- | --- | --- | --- | --- | --- | --- |
| CCC(C)n1ncn(-c2ccc(N3CCN(c4ccc(OC[C@H]5CO[C@](Cn6cncn6)(c6ccc(Cl)cc6Cl)O5)cc4)CC3)cc2)c1=O (relative stereo) [ITZ, (2R,4S)-rel-1-(Butan-2-yl)-4-{4-[4-(4-{[(2R,4S)-2-(2,4-dichlorophenyl)-2-(1H-1,2,4-triazol-1-ylmethyl)-1,3-dioxolan-4-yl]methoxy}phenyl)piperazin-1-yl]phenyl}-4,5-dihydro-1H-1,2,4-triazol-5-one] |  |  |  |  |  | water-solubility [1]: 1 ng/mL |
| CCC(C)n1ncn(-c2ccc(N3CCN(c4ccc(OC[C@H]5CO[C@](Cn6cncn6)(c6ccc(Cl)cc6Cl)O5)cc4)CC3)cc2)c1=O (mixture of isomers) [Form III, itraconazole] | about 7 fold |  |  | converted to Form I | dissolved much more rapidly than the other two forms | time of peak drug concentration [2]: ~15 h; phase stability on annealing (XRPD) ([3]; 100° C. for 10 hours): no such phase transition; phase stability on annealing (XRPD) ([3]; 120° C. for 10 hours): conversion to Form II; crystal structure after grinding (XRPD) ([3]; grinding with pestle and mortar): remained unchanged in crystal structure; physical stability at ambient conditions ([3]; scraping from glass coverslip for XRPD analysis): stable at ambient conditions |
| CCC(C)n1ncn(-c2ccc(N3CCN(c4ccc(OC[C@H]5CO[C@](Cn6cncn6)(c6ccc(Cl)cc6Cl)O5)cc4)CC3)cc2)c1=O (mixture of isomers) [amorphous form, itraconazole] |  |  |  | converted to Form I | increased most rapidly | solid form of undissolved solid at end of dissolution study (DSC and XRPD) ([2]; listed as amorphous material): converted to Form I; dissolved drug concentration level after initial drop ([2]; after 50 h): equivalent to the equilibrium solubility of Form I |
